The test system of the test is Sprague-Dawley rats. Briefly: Blood glucose depression by intracolonically administered bovine pancreatic insulin with absorption enhancer. The class given is in vivo. Conditions: for Blood glucose as % of basal level: enhancer 0 mg/kg (insulin without enhancer), intracolonic, rats. As to the method: It is neutralized by 1 equivalent of sodium hydroxide. The pH is adjusted to 7-8 by 1N HCl and saturated sodium bicarbonate. Bovine pancreatic insulin (1.75 mL; Sigma, 10 mg/mL; in pH 8.2 HEPES buffer) is added and mixed by gentle swirling. The solution density is determined so that the required dose may be calculated.
The solution is then given to Sprague-Dawley rats (female, 250-300 g, n=3), intracolonically. Blood samples are taken from the tail vein and glucose levels measured using an OneTouch® UltraSmart® blood glucose meter.
As insulin reduces glucose levels in the blood, a depression in glucose levels indicates insulin reaching the blood efficaciously.

For “bovine pancreatic insulin: Bovine pancreatic insulin (Sigma, 10 mg/mL; in pH 8.2 HEPES buffer), the active agent co-administered”, the “Blood glucose as % of basal level” value runs as follows: (0 min) 100%; (30 min) 94 ± 4%; (60 min) 102 ± 7%; (90 min) 105 ± 3%; (120 min) 107 ± 7%; (150 min) 94 ± 7%. Further, the “Blood glucose as % of basal level” value came to 111 ± 7% (180 min), 113 ± 4% (210 min) and 100 ± 7% (240 min).

As to `COC(=O)c1ccc(NC(=O)CCC(=O)O)cc1O` [Example 20, methyl 4-(3-carboxy-propionylamino)], the “50% depression at 60 min. (blood glucose from basal level)” value (enhancer dose 200 mg/Kg, insulin 7 mg/Kg, procedure of Example 12) is recorded as “negative (a 50% reduction in glucose levels was not reached in 60 minutes)”.

Values taken from patent publication US20070269494A1, “Compositions and methods for enhancing active agent absorption” (Nexus Pharma, Inc., priority 2006, published 2007).
